The record followed here is US10106515B2, “1-(cyclopent-2-en-1-yl)-3-(2-hydroxy-3-(arylsulfonyl)phenyl)urea derivatives as CXCR2 inhibitors” (GLAXOSMITHKLINE INTELLECTUAL PROPERTY DEVELOPMENT LIMITED, priority 2014, dated 2018).

Where a name gives a salt, the structure may show the parent alone.

For the assay, the target named is T1, recombinant human CXCR2 (Homo sapiens, UniProt P25025).
T1 construct: TEV protease site; Gal4-VP16 transcription factor
T1 sequence (P25025 1-360): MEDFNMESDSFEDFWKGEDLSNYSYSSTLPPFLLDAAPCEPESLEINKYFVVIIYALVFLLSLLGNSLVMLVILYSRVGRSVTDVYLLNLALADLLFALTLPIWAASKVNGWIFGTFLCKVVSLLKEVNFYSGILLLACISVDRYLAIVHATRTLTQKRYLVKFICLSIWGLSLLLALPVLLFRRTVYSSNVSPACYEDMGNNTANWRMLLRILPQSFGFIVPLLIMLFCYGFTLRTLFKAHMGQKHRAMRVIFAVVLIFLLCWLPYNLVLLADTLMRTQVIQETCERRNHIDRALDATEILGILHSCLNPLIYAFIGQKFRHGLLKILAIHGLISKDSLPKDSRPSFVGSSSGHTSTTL
Briefly: CXCR2 Tango assay. The assay is classed as cell-based. As to conditions: mean pIC50 of multiple test results; stimulated with 80 nM hCXCL1; reporter gene blue/green emission ratio; read-out: pIC50 (CXCR2 Tango assay) (converted). An excerpt: The assay measures ligand-induced activation of the receptor CXCR2 in a stable cell line containing the recombinant human CXCR2 linked to a TEV protease site and a Gal4-VP16 transcription factor (Invitrogen). Ligand binding to the receptor results in the recruitment of arrestin proteins (tagged with protease) to the receptor and triggers the release of a tethered transcription factor. The transcription factor enters the nucleus and activates the transcription of the reporter gene. The ability of a compound to inhibit CXCR2 activation is indirectly assessed by measuring the reporter gene activity.
A vial of cryopreserved cells was removed from liquid nitrogen and rapidly thawed in a water bath at 37° C. with gentle agitation. The contents of the vial were transferred drop-wise into Thawing Medium in a sterile 15 ml conical tube and then centrifuged at 1000 rpm for 4-5 min. Then the cell pellets were resuspended in Assay Medium at a density of ˜200,000 cells/ml. All test compounds were dissolved in DMSO at a concentration of 10 mM and were prepared in 100% DMSO to provide 10 point dose response curves. A reference CXCR2 antagonist was added to wells in row 2, columns 1-5 & 7-11. Exemplified compounds 1-4, 7, 8-10, 13-22, 24-26, 28-30, 32, 33, 36, 37, 40, 42-44. 95-110, 115-118, 120, 121, 125, 126, 129-134, 137, 138, 140, 142, 147-149, 153-157, 159-162, 163-166, 168, 170, 172, 174-180 and 202 were tested using the CXCR2 antagonist sodium 3-chloro-6-(3-(2,3-dichlorophenyl)ureido)-2-sulfamoylphenolate as reference compound (Reference Compound 1) (published International patent application WO2002/079122). […] Test compounds were added to wells in row 2, columns 13-17 & 19-23 and rows 3-15, columns 1-5 & 7-11/13-17 & 19-23 (columns 6 and 18 as positive controls and un-stimulated controls respectively; columns 12 and 24 as cell-free control). Compounds in solution were added to the assay plate (Greiner 781090) using an Echo (Labcyte) concentration-response program (50 nl/well). The cell-free, un-stimulated and positive controls were loaded with 50 nl/well pure DMSO to ensure that the DMSO concentration was constant across the plate for all assays. Using Multi-drop Combi (Thermo) with standard cassette, 50 μl of Assay Medium was added to each well in the cell-free controls (columns 12 and 24); 50 μl of the cell suspension without hCXCL1 (a CXCR2 ligand) was added to each well in column 18 of the plate (˜10,000 cells per well); and 50 μl of the cell suspension with 80 nM hCXCL1 was added to the rest of wells of the plate (˜10,000 cells per well). The cells were incubated overnight at 37° C./5% CO2. 10 μl of 6× substrate mixture (LiveBLAzer™-FRET B/G substrate (CCF4-AM) Cat # K1096 from Invitrogen, Inc.) was added to each well using Multi-drop Combi (Thermo) with small-tube cassette and the plates incubated at room temperature for 2 h in the dark. The plate was finally read on EnVision using one excitation channel (409 nm) and two emission channels (460 nm and 530 nm).
The blue/green emission ratio (460 nm/530 nm) was calculated for each well, by dividing the background-subtracted Blue emission values by the background-subtracted Green emission values. The dose response curve was based on sigmoidal dose-response model. All ratio data was normalized based upon the maximum emission ratio of positive control (hCXCL1) and minimum emission ratio of negative control (DMSO) on each plate. The intrinsic activity (IA) of each compound would be the normalized percentage of its maximum response after curve fitting.
All exemplified compounds (except for Compounds 203 and 204) were tested in the CXCR2 Tango assay or a similar assay described above. The data mentioned below represents a mean pIC 50 value of multiple test results. It is understood that the data illustrated below may have reasonable variation depending on the specific conditions and procedures used by the person conducting the testing.
(In a reporter assay the amount or activity of a reporter protein is the signal.)
For the compound `O=C(Nc1ccc(Cl)c(S(=O)(=O)[C@H]2CCOC2)c1O)NC1CCC=C1Cl` (stereo partly drawn) [Compound 179, 1-(4-chloro-2-hydroxy-3-(((S)-tetrahydrofuran-3-yl)sulfonyl)phenyl)-3-(2-chlorocyclopent-2-en-1-yl)urea], the IC50 was no more than 10 nM.

Regarding `CC1(S(=O)(=O)c2c(Cl)ccc(NC(=O)N[C@@H]3CCC=C3Cl)c2O)CC(O)C1` (stereo partly drawn) [Compound 38, (R)-1-(4-chloro-2-hydroxy-3-((3-hydroxy-1-methylcyclobutyl)sulfonyl)phenyl)-3-(2-chlorocyclopent-2-en-1-yl)urea], the IC50 was no more than 1 nM.

As to `CO[C@H]1C[C@@H](S(=O)(=O)c2c(Cl)ccc(NC(=O)NC3C=CCC3)c2O)C1` (stereo partly drawn) [Compound 147, 1-(4-chloro-2-hydroxy-3-((cis-3-methoxycyclobutyl)sulfonyl)phenyl)-3-(cyclopent-2-en-1-yl)urea], the IC50 is no more than 10 nM.

Turning to `O=C(O)C(F)(F)F.[2H]C1(S(=O)(=O)c2c(Cl)ccc(NC(=O)N[C@@H]3CCC=C3Cl)c2O)CCN(C2CCC2)CC1` [Compound 169, (R)-1-(4-chloro-3-((1-cyclobutylpiperidin-4-yl)sulfonyl)-2-hydroxyphenyl)-3-(2-chlorocyclopent-2-en-1-yl)urea-d1, trifluoroacetic acid salt], the IC50 is no more than 1 nM.

As to `CO[C@@H]1COCC[C@@H]1S(=O)(=O)c1c(Cl)ccc(NC(=O)N[C@@H]2CCC=C2C)c1O` [Compound 145, 1-(4-chloro-2-hydroxy-3-(((3R,4S)-3-methoxytetrahydro-2H-pyran-4-yl)sulfonyl)phenyl)-3-((R)-2-methylcyclopent-2-en-1-yl)urea], the IC50 was no more than 10 nM.

Take `CC(C)(c1ccccn1)S(=O)(=O)c1c(Cl)ccc(NC(=O)NC2CCC=C2Cl)c1O` (stereo not drawn) [Compound 4, 1-(4-chloro-2-hydroxy-3-((2-(pyridin-2-yl)propan-2-yl)sulfonyl)phenyl)-3-(2-chlorocyclopent-2-en-1-yl)urea, trifluoroacetic acid salt]: the IC50 is no more than 10 nM.

Take `CC1=CCCC1NC(=O)Nc1ccc(Cl)c(S(=O)(=O)N2CC(F)(F)C2)c1O` (stereo not drawn) [Compound 111, 1-(4-chloro-3-((3,3-difluoroazetidin-1-yl)sulfonyl)-2-hydroxyphenyl)-3-(2-methylcyclopent-2-en-1-yl)urea]: the IC50 is no more than 10 nM.

On to `CC1=CCC[C@H]1NC(=O)Nc1ccc(Cl)c(S(=O)(=O)C2CCC[C@H](O)C2)c1O` (stereo partly drawn) [Compound 52, 1-(4-chloro-2-hydroxy-3-((trans-3-hydroxycyclohexyl)sulfonyl)phenyl)-3-((R)-2-methylcyclopent-2-en-1-yl)urea], for which the IC50 was no more than 1 nM.

As to `CC1=CCCC1NC(=O)Nc1ccc(Cl)c(S(=O)(=O)N2CC[C@@H](F)C2)c1O` (stereo partly drawn) [Compound 113, 1-(4-chloro-3-(((R)-3-fluoropyrrolidin-1-yl)sulfonyl)-2-hydroxyphenyl)-3-(2-methylcyclopent-2-en-1-yl)urea], the IC50 was no more than 10 nM.

With `CC1=CCCC1NC(=O)Nc1ccc(Cl)c(S(=O)(=O)[C@H]2C[C@H](N3CCCC3)C2)c1O` (stereo partly drawn) [Compound 96, 1-(4-chloro-2-hydroxy-3-(((1r,3r)-3-(pyrrolidin-1-yl)cyclobutyl)sul-fonyl)phenyl)-3-(2-methylcyclopent-2-en-1-yl)urea, trifluoroacetic acid salt], the IC50 was no more than 10 nM.

As to `CC1=CCC[C@H]1NC(=O)Nc1ccc(Cl)c(S(=O)(=O)N2CC(F)C2)c1O` [Compound 86, (R)-1-(4-chloro-3-((3-fluoroazetidin-1-yl)sulfonyl)-2-hydroxyphenyl)-3-(2-methylcyclopent-2-en-1-yl)urea trifluoroacetic acid salt], the IC50 was no more than 10 nM.

Turning to `CC(F)(F)S(=O)(=O)c1c(Cl)ccc(NC(=O)NC2CCC=C2Cl)c1O` (stereo not drawn) [Compound 37, 1-(4-chloro-3-((1,1-difluoroethyl)sulfonyl)-2-hydroxyphenyl)-3-(2-chlorocyclopent-2-en-1-yl)urea], the IC50 was no more than 1 nM.

`O=C(Nc1ccc(Cl)c(S(=O)(=O)[C@H]2CC[C@H](N3CCC3)CC2)c1O)NC1CCC=C1Cl` (stereo partly drawn) [Compound 178, 1-(3-((trans-4-(azetidin-1-yl)cyclohexyl)sul-fonyl)-4-chloro-2-hydroxyphenyl)-3-(2-chlorocyclopent-2-en-1-yl)urea, trifluoroacetic acid salt]: the IC50 is no more than 10 nM.

For `CC1=CCC[C@H]1NC(=O)Nc1ccc(Cl)c(S(=O)(=O)N2CCCCC2)c1O` [Compound 91, (R)-1-(4-chloro-2-hydroxy-3-(piperidin-1-ylsulfonyl)phenyl)-3-(2-methylcyclopent-2-en-1-yl)urea trifluoroacetic acid salt], the IC50 is no more than 1 nM.

`CC1=CCC[C@H]1NC(=O)Nc1ccc(Cl)c(S(=O)(=O)C(C)(C)C(F)(F)F)c1O` [Compound 58, (R)-1-(4-chloro-2-hydroxy-3-((1,1,1-trifluoro-2-methylpropan-2-yl)sulfonyl)phenyl)-3-(2-methylcyclopent-2-en-1-yl)urea]: the IC50 is no more than 1 nM.

As for `CC1=CCCC1NC(=O)Nc1ccc(Cl)c(S(=O)(=O)[C@H]2CC[C@H](N3CCC3)CC2)c1O` (stereo partly drawn) [Compound 97, 1-(3-(((1r,4r)-4-(azetidin-1-yl)cyclohexyl)sulfonyl)-4-chloro-2-hydroxyphenyl)-3-(2-methylcyclopent-2-en-1-yl)urea trifluoroacetic acid salt], the IC50 is no more than 10 nM.

For `CC1=C(Cl)CCC1NC(=O)Nc1ccc(Cl)c(S(=O)(=O)C(C)C)c1O` (stereo not drawn) [Compound 16, 1-(4-chloro-2-hydroxy-3-(isopropylsulfonyl)phenyl)-3-(3-chloro-2-methylcyclopent-2-en-1-yl)urea], the IC50 is no more than 10 nM.

On to `O=C(Nc1ccc(Cl)c(S(=O)(=O)C2CCOCC2)c1O)NC1CCC=C1Cl` (stereo not drawn) [Compound 180, 1-(4-chloro-2-hydroxy-3-((tetrahydro-2H-pyran-4-yl)sulfonyl)phenyl)-3-(2-chlorocyclopent-2-en-1-yl)urea], for which the IC50 was no more than 10 nM.

Turning to `CN(C)C[C@H]1C[C@@H](S(=O)(=O)c2c(Cl)ccc(NC(=O)NC3CCC=C3Cl)c2O)C1` (stereo partly drawn) [Compound 132, 1-(4-chloro-3-((cis-3-((dimethylamino)methyl)cyclobutyl)sulfonyl)-2-hydroxyphenyl)-3-(2-chlorocyclopent-2-en-1-yl)urea, trifluoroacetic acid salt], the IC50 was no more than 10 nM.

On to `O=C(Nc1ccc(Cl)c(S(=O)(=O)C2(F)CCOC2)c1O)N[C@@H]1CCC=C1Cl` (stereo partly drawn) [Compound 167, 1-(4-chloro-3-((3-fluorotetrahydro-furan-3-yl)sulfonyl)-2-hydroxyphenyl)-3-((R)-2-chlorocyclopent-2-en-1-yl)urea], for which the IC50 is no more than 1 nM.

`CC1=CCCC1NC(=O)Nc1ccc(Cl)c(S(=O)(=O)C(C)(F)F)c1O` (stereo not drawn) [Compound 106, 1-(4-chloro-3-((1,1-difluoroethyl)sulfonyl)-2-hydroxyphenyl)-3-(2-methylcyclopent-2-en-1-yl)urea]: the IC50 was no more than 1 nM.
